Legend:
[1] = tested on: subjects with schizophrenia; assay: Correlation of pre-treatment resting-state EEG metrics (power law exponent, beta power) with response to poma treatment (MCCB domain scores), clinical trials NCT00845026 and NCT01052103; assay type: in vivo, human; details: subgroups of patients identified by EEG metrics (Examples 1-3)
Source text: The power spectrum of resting state EEG signals, when viewed in the frequency domain (that is, with frequency of oscillation on the x-axis and power on the y-axis), forms roughly a straight line, when viewed on a log-log plot; see FIG.5 (from Miller et al. […] PLoS Comput Biol 5(12): e1000609)
Mathematically, this can be expressed as log (P)=k−βlog (f), or equivalently, P αf−β1/fβ), where P=power, f=frequency, −β is the slope of the fitted line, and k is a constant. This phenomenon is known by various terms, such as a “power law” spectrum or “1/f noise”. It is often referred to as “scale invariant” or “fractal” behavior (Lowen and Teich, 2005), as the power law exponent, β, is constant regardless of the resolution at which it is calculated.
This study used data from clinical trials NCT00845026 (N=117) and NCT01052103 (N=196), which studied male and female subjects with schizophrenia treated with poma vs. antipsychotic agent standard of care. […] We calculated only power at the stimulated frequency and, for recordings in the resting state, the power law exponent (PLE; also known as the “fractal exponent”). […] We calculated all predictive measures for each EEG electrode. […]

[2] = tested on: subjects with schizophrenia; details: cited from earlier work
[3] = humans; cited from earlier work

SMILES	Cognitive function in measures of working memory, reasoning/problem solving, and attention/vigilance [1]	Efficacy versus placebo as determined with PANSS total scores ([2]; clinical studies, halted)	Dosage shown to be efficacious ([2]; early phase II monotherapy trial)	Oral absorption and bioavailability [3]
CSCC[C@H](N)C(=O)N[C@@]1(C(=O)O)CS(=O)(=O)[C@H]2[C@H](C(=O)O)[C@H]21 [poma, Pomaglumetad methionil]	significant improvement in cognitive function	not significantly more efficacious than the placebo	40 mg BID	
N[C@@]1(C(=O)O)CS(=O)(=O)[C@H]2[C@H](C(=O)O)[C@H]21 [pomaglumetad]				low

From patent publication US20220313170A1, “METHOD OF INCREASING COGNITIVE FUNCTION WITH GLUTAMATE RECEPTOR AGONIST” (priority 2019, published 2022)
